Assay results taken from patent US20110046223A1, “TREATMENT OF NEUROFIBROMATOSIS” (RAMOT AT TEL-AVIV UNIVERSITY LTD., priority 2006, published 2011).

Experiments:
Ras-GTP = assay: serum-stimulated GTP loading of Ras, kinetic study; format: cell-based, human
Procedure: Unless otherwise indicated, cells were lysed 48 hours after being treated with lysis buffer, as described in Haklai, et al., supra. Lysates containing 50-100 μg protein were subjected to SDS-PAGE followed by Western immunoblotting, as described in Haklai, et al., supra.; Elad-Sfadia, G., Haklai, R., Ballan, E., Gabius, H. J., Kloog, Y., J. Biol. Chem. 277:37169-75 (2002); Paz, A., Haklai, R., Elad, G., Ballab, E., Kloog, Y., Oncogene 20:7486-93 (2000), with one of the following antibodies: 1:2000 pan-Ras Ab-3; 1:10,000 anti-phospho-ERK Ab; 1:2000 anti-ERK Ab; 1:1000 anti-Akt Ab; 1:2000 anti-phospho-Akt Ab; 1:500 antitubulin Ab; 1:5000 anti-RalA Ab; 1:1000 anti-p120 RasGAP Ab; or 1:200 anti-neurofibromin Ab. The immunoblots were then exposed either to 1:7500 peroxidase goat anti-mouse IgG or to 1:2000 peroxidase goat anti-rabbit IgG. Protein bands were visualized by ECL and quantified by densitometry with Image Master VDS-CL (Amersham) using TINA 2.0 software (Ray Tests). To obtain reliable comparisons between replicated experiments for statistical analysis, a standardization procedure was used, in which the density of each given protein band as recorded with its specific Ab, was normalized. Normalization was achieved by collecting and averaging all the data obtained for a given band (for example, for the Ras-GTP band) in a set of experiments, irrespective of cell type or treatment. The standard average density was defined as 1.0, and each of the individually determined bands was related to this value. Accordingly, the normalized value of a single band would be 1.0 if it was equal to the standard value, or would range between values above and below 1.0 (respectively representing values higher and lower than the standard). The normalized values thus obtained were used to calculate means±SD and, to determine, using Student's t-test, the statistical significance of differences between populations. Lysates containing 500 μg protein were used to determine Ras-GTP by the GST-RBD pull-down assay, and this was followed by Western immunoblotting with pan anti-Ras Ab as described in Elad-Sfadia, G., et al., supra. Lysates containing 500 μg protein were used to determine RalA-GTP by the GST-RalBD pulldown assay, followed by Western immunoblotting with anti-RalA Ab [Wolthuis, R. M., Zwartkruis, F., Moen, T. C., Bos, J. L. Ral. Curr. Biol. 8:471-4 (1998)]. Actin cytoskeletal elements were labeled with rhodamine-phalloidin, and digital fluorescence images were collected on a Zeiss LSM 510 confocal microscope fitted with fluorescein and rhodamine filters, as described in Gana-Weisz, M., et al., supra.
First, the time courses of serum-stimulated GTP loading of Ras and serum-stimulated activation of signals downstream of Ras were determined. […]

[1] = human, doses up to 1800 mg/day; cited from earlier work
ST88-14 cells = assay: ST88-14 tumor growth in nude mice; format: in vivo, nude CD1-Nu male mice; conditions: six weeks
Procedure: ST88-14 cells (5×10^6) in Matrigel were implanted subcutaneously (s.c.) just above the right femoral joint of nude CD1-Nu male mice (6 weeks old). Two weeks later palpable tumors were observed and the mice were separated randomly into vehicle-treated control and FTS-treated groups. Two types of treatment protocols were used. (1) The first protocol was intraperitoneal (i.p.) administration (0.1 mL) of vehicle, 1 mg/kg, 5 mg/kg or 10 mg/kg FTS (n=6 per group). The FTS solution was prepared in saline containing phosphate buffer as described in Haklai, et al., supra. (2) The second protocol was oral administration of FTS. Mice received vehicle or 20, 40, 60, or 80 mg/kg FTS (n=10 per group). The FTS mixture for oral administration was prepared in PBS/0.5% carboxymethyl cellulose. Mice were sacrificed 6 weeks after the start of the treatment, and tumors were removed and weighed. Student's t-test was used for data analysis.
[Ozerdem, U., Angiogenesis 7:307-11 (2004)]. Thus, to determine whether FTS inhibited tumor growth in the nude mouse model, two types of treatments were preformed. The first was i.p. administration of 1, 5, or 10 mg/kg FTS, as earlier described. [Weisz, B., et al., supra.]. The second was oral administration, which required higher FTS doses of 20, 40, 60, and 80 mg/kg. Six weeks after the treatment the mice were sacrificed and tumors were removed and weighed.

In the case of `CC(C)=CCC/C(C)=C/CC/C(C)=C/CSc1ccccc1C(=O)O` [FTS, S-farnesylthiosalicylic acid], the “duration of the Ras signal in the presence of FTS” value (Ras-GTP; NF-1 cells, serum stimulation) is reported as 5 to 10 min, the “serum-stimulated increase in Ras-GTP” value (Ras-GTP; STS26T cells, 20 μM FTS, serum-starved 24 hours, stimulated with 10% serum) is reported as “strongly inhibited” and the “duration of the serum-stimulated signals (Ras-GTP, phospho-ERK, phospho-Akt)” value (Ras-GTP; all NF-1 cell lines) is reported as “shortened the duration of the signals”. For the same compound, the “serum-stimulated increase in Ras-GTP” value (Ras-GTP; all NF-1 cell lines (T265P21, ST88-14, 90-8)) was “reduced”, the dose-limiting toxicities [1] was “no dose-limiting toxicities” and the “inhibition of tumor growth (tumor weight)” value (ST88-14 cells; i.p., 10 mg/kg FTS, P<0.05) was 49%. For the same compound, the “tumor growth, dose dependence” value (ST88-14 cells; i.p., 1, 5, or 10 mg/kg FTS) was “dose-dependent inhibition of tumor growth”, the “inhibition of tumor growth (tumor weight)” value (ST88-14 cells; oral, 80 mg/kg FTS, P<0.01) was 58% and the “tumor growth, dose dependence” value (ST88-14 cells; oral, 20, 40, 60, and 80 mg/kg FTS) was “dose-dependent inhibition of tumor growth”.
